Key:
kochia = test: Test C postemergence; assay type: in vivo, Kochia scoparia
Method in brief: (§1)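 Preemergence: seeds sown in a loam soil–sand blend and sprayed with test chemical in a non-phytotoxic solvent mixture containing surfactant. Postemergence: plants at 2 to 18 cm (1- to 4-leaf stage) in peat-based medium, treated with the same formulation. Greenhouse 13 to 15 days, then visual rating 0 (no effect) to 100 (complete control).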

pigweed = test: Test A preemergence; assay type: in vivo, Amaranthus retroflexus
Method in brief: (§2)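 Injury scores run from 0, no effect, to 100, complete control, judged by eye against untreated plants roughly 10 days after treatment. Chemicals carried a surfactant in a non-phytotoxic solvent and went onto loam–sand soil preemergence or onto one- to two-leaf seedlings postemergence.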

giant foxtail = test: Test A preemergence; assay type: in vivo, Setaria faberii
Method in brief: as §2

wheat = test: Test A postemergence; assay type: in vivo, Triticum aestivum; conditions: 0 to 100 scale where 0 is no effect and 100 is complete control
Method in brief: as §2

barnyardgrass = test: Test B flooded paddy test; assay type: in vivo, Echinochloa crus-galli; conditions: Flood, 250 g ai/ha, 0 to 100 scale where 0 is no effect and 100 is complete control
Method in brief: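 Plants were grown to the 2-leaf stage, then pots were flooded to 3 cm above the soil and compounds were applied directly into the paddy water. That depth was held throughout, and after 13 to 15 days in the greenhouse injury was rated visually against controls on a 0–100 scale (0 no effect, 100 complete control).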

velvetleaf = test: Test A postemergence; assay type: in vivo, Abutilon theophrasti; conditions: 0 to 100 scale where 0 is no effect and 100 is complete control
Method in brief: as §2

wild oat = test: Test C postemergence; assay type: in vivo, Avena fatua
Method in brief: as §1

chickweed = test: Test C postemergence; assay type: in vivo, Stellaria media
Method in brief: as §1

Italian ryegrass = test: Test C preemergence; assay type: in vivo, Lolium multiflorum
Method in brief: as §1

large (Lg) crabgrass = test: Test C preemergence; assay type: in vivo, Digitaria sanguinalis
Method in brief: as §1

wheat, winter = test: Test C postemergence; assay type: in vivo, Triticum aestivum
Method in brief: as §1

morningglory = test: Test A preemergence; assay type: in vivo, Ipomoea spp.
Method in brief: as §2

[1] = 16 g ai/ha, postemergence, 0 is no effect, 100 is complete control
[2] = 31 g ai/ha, postemergence, visual rating, scale 0 to 100 (0 no effect, 100 complete control), 13 to 15 days
[3] = 125 g ai/ha, postemergence, visual rating, scale 0 to 100 (0 no effect, 100 complete control)
[4] = Postemergence, 62 g ai/ha, scale 0 to 100 (0 no effect, 100 complete control)
[5] = 500 g ai/ha, 0 to 100 scale where 0 is no effect and 100 is complete control
[6] = 16 g ai/ha, preemergence, scale 0 to 100 (0 no effect, 100 complete control)
[7] = 125 g ai/ha, preemergence, scale 0 (no effect) to 100 (complete control)
[8] = Preemergence, 62 g ai/ha, scale 0 to 100, 0 no effect, 100 complete control

SMILES: Cc1cnc(Oc2cccc(C#N)c2-n2cc(C(F)(F)F)cn2)nc1 [Compound 180]
- Plant response rating (0 to 100), Kochia (kochia; [1]): 40
- Kochia plant response rating (kochia; [2]): 50
- Plant response rating, Kochia (kochia; [3]): 60
- Plant response rating, Kochia (kochia; [4]): 50
- Pigweed plant response rating (0 to 100 scale) (pigweed; 125 g ai/ha): 100
- Pigweed plant response rating (pigweed; [5]): 100
- Foxtail, Giant plant response rating (0 to 100 scale) (giant foxtail; 125 g ai/ha): 100
- Foxtail, Giant plant response rating (giant foxtail; [5]): 100
- Wheat plant response rating (wheat; 125 g ai/ha): 40
- Plant response rating, Wheat (wheat; 500 g ai/ha): 80
- Plant response rating, Barnyardgrass (barnyardgrass): 60
- Velvetleaf plant response rating (velvetleaf; 125 g ai/ha): 100
- Plant response rating, Velvetleaf (velvetleaf; 500 g ai/ha): 100
- Plant response rating (0 to 100), Oat, Wild (wild oat; [1]): 5
- Oat, Wild plant response rating (wild oat; [2]): 10
- Plant response rating, Oat, Wild (wild oat; [3]): 30
- Plant response rating, Oat, Wild (wild oat; [4]): 20
- Plant response rating (0 to 100), Chickweed (chickweed; [1]): 50
- Chickweed plant response rating (chickweed; [2]): 60
- Plant response rating, Chickweed (chickweed; [3]): 80
- Plant response rating, Chickweed (chickweed; [4]): 70
- Ryegrass, Italian plant response rating (Italian ryegrass; [6]): 5
- Ryegrass, Italian plant response rating (Italian ryegrass; [7]): 80
- Plant response rating, Ryegrass, Italian (Italian ryegrass; [8]): 50
- Crabgrass, Large plant response rating (large (Lg) crabgrass; [6]): 100
- Crabgrass, Large plant response rating (large (Lg) crabgrass; [7]): 100
- Plant response rating, Crabgrass, Large (large (Lg) crabgrass; [8]): 100
- Plant response rating (0 to 100), Wheat (wheat, winter; [1]): 0
- Wheat plant response rating (wheat, winter; [2]): 0
- Plant response rating, Wheat (wheat, winter; [3]): 5
- Plant response rating, Wheat (wheat, winter; [4]): 0
- Morningglory plant response rating (0 to 100 scale) (morningglory; 125 g ai/ha): 90
- Morningglory plant response rating (morningglory; [5]): 100

SMILES: N#Cc1cccc(Oc2ncc(F)cn2)c1-n1cc(C(F)(F)F)cn1 [Compound 79, 3-[(5-fluoro-2-pyrimidinyl)oxy]-2-[4-(trifluoromethyl)-1H-pyrazol-1-yl]benzonitrile]
- pest or weed control at 125 g/ha (kochia; Bassia scoparia, post-emergence, 125 g ai/ha, postemergence, read-out: Plant response rating (0 to 100), Kochia): 95%
- pest or weed control at 250 g/ha (kochia; Bassia scoparia, post-emergence, 250 g ai/ha, postemergence, read-out: Plant response rating (0 to 100), Kochia): 95%
- pest or weed control at 31 g/ha (kochia; Bassia scoparia, post-emergence, Postemergence, 31 g ai/ha, scale 0 to 100 (0 no effect, 100 complete control), 13 to 15 days, read-out: Plant response rating, Kochia): 90%
- pest or weed control at 62 g/ha (kochia; Bassia scoparia, post-emergence, Postemergence, 62 g ai/ha, scale 0 to 100 (0 no effect, 100 complete control), read-out: Plant response rating, Kochia): 90%
- pest or weed control at 125 g/ha (pigweed; Amaranthus retroflexus, pre-emergence, 125 g ai/ha, 0 to 100 scale where 0 is no effect and 100 is complete control, read-out: Plant response rating, Pigweed): 100%
- pest or weed control at 500 g/ha (pigweed; Amaranthus retroflexus, pre-emergence, 240 h, 500 g ai/ha, 0 to 100 scale, 0 no effect, 100 complete control, approx. 10 days, read-out: Pigweed plant response rating): 100%
- pest or weed control at 125 g/ha (giant foxtail; Setaria faberi, pre-emergence, 240 h, 125 g ai/ha, 0 to 100 scale where 0 is no effect and 100 is complete control, read-out: Plant response rating, Foxtail, Giant): 100%
- pest or weed control at 500 g/ha (giant foxtail; Setaria faberi, pre-emergence, 240 h, 500 g ai/ha, 0 to 100 scale, 0 no effect, 100 complete control, approx. 10 days, read-out: Foxtail, Giant plant response rating): 100%
- plant injury at 125 g/ha (wheat; Triticum aestivum, post-emergence, 240 h, 125 g ai/ha, read-out: Plant response rating, Wheat): 80%
- plant injury at 500 g/ha (wheat; Triticum aestivum, post-emergence, 240 h, 500 g ai/ha, read-out: Plant response rating, Wheat): 90%
- pest or weed control at 250 g/ha (barnyardgrass; Echinochloa crus-galli, read-out: Plant response rating, Barnyardgrass): 40%
- pest or weed control at 125 g/ha (velvetleaf; Abutilon theophrasti, post-emergence, 240 h, 125 g ai/ha, read-out: Plant response rating, Velvetleaf): 100%
- pest or weed control at 500 g/ha (velvetleaf; Abutilon theophrasti, post-emergence, 240 h, 500 g ai/ha, read-out: Plant response rating, Velvetleaf): 100%
- pest or weed control at 125 g/ha (wild oat; Avena fatua, post-emergence, 125 g ai/ha, postemergence, read-out: Plant response rating (0 to 100), Oat, Wild): 20%
- pest or weed control at 250 g/ha (wild oat; Avena fatua, post-emergence, 250 g ai/ha, postemergence, read-out: Plant response rating (0 to 100), Oat, Wild): 50%
- pest or weed control at 31 g/ha (wild oat; Avena fatua, post-emergence, Postemergence, 31 g ai/ha, scale 0 to 100 (0 no effect, 100 complete control), 13 to 15 days, read-out: Plant response rating, Oat, Wild): 10%
- pest or weed control at 62 g/ha (wild oat; Avena fatua, post-emergence, Postemergence, 62 g ai/ha, scale 0 to 100 (0 no effect, 100 complete control), read-out: Plant response rating, Oat, Wild): 15%
- pest or weed control at 125 g/ha (chickweed; Stellaria media, post-emergence, 125 g ai/ha, postemergence, read-out: Plant response rating (0 to 100), Chickweed): 90%
- pest or weed control at 250 g/ha (chickweed; Stellaria media, post-emergence, 250 g ai/ha, postemergence, read-out: Plant response rating (0 to 100), Chickweed): 95%
- pest or weed control at 31 g/ha (chickweed; Stellaria media, post-emergence, Postemergence, 31 g ai/ha, scale 0 to 100 (0 no effect, 100 complete control), 13 to 15 days, read-out: Plant response rating, Chickweed): 50%
- pest or weed control at 62 g/ha (chickweed; Stellaria media, post-emergence, Postemergence, 62 g ai/ha, scale 0 to 100 (0 no effect, 100 complete control), read-out: Plant response rating, Chickweed): 65%
- pest or weed control at 62 g/ha (Italian ryegrass; Lolium multiflorum, pre-emergence, 62 g ai/ha, preemergence, scale 0 (no effect) to 100 (complete control), read-out: Ryegrass, Italian plant response rating): 90%
- pest or weed control at 125 g/ha (Italian ryegrass; Lolium multiflorum, pre-emergence, 125 g ai/ha, preemergence, scale 0 (no effect) to 100 (complete control), read-out: Ryegrass, Italian plant response rating): 90%
- pest or weed control at 250 g/ha (Italian ryegrass; Lolium multiflorum, pre-emergence, 250 g ai/ha, preemergence, scale 0 (no effect) to 100 (complete control), read-out: Ryegrass, Italian plant response rating): 90%
- pest or weed control at 31 g/ha (Italian ryegrass; Lolium multiflorum, pre-emergence, Preemergence, 31 g ai/ha, scale 0 to 100, 0 no effect, 100 complete control, read-out: Plant response rating, Ryegrass, Italian): 40%
- pest or weed control at 62 g/ha (large (Lg) crabgrass; Digitaria sanguinalis, pre-emergence, 62 g ai/ha, preemergence, scale 0 (no effect) to 100 (complete control), read-out: Crabgrass, Large plant response rating): 100%
- pest or weed control at 125 g/ha (large (Lg) crabgrass; Digitaria sanguinalis, pre-emergence, 125 g ai/ha, preemergence, scale 0 (no effect) to 100 (complete control), read-out: Crabgrass, Large plant response rating): 100%
- pest or weed control at 250 g/ha (large (Lg) crabgrass; Digitaria sanguinalis, pre-emergence, 250 g ai/ha, preemergence, scale 0 (no effect) to 100 (complete control), read-out: Crabgrass, Large plant response rating): 100%
- pest or weed control at 31 g/ha (large (Lg) crabgrass; Digitaria sanguinalis, pre-emergence, Preemergence, 31 g ai/ha, scale 0 to 100, 0 no effect, 100 complete control, read-out: Plant response rating, Crabgrass, Large): 100%
- plant injury at 125 g/ha (wheat, winter; Triticum aestivum, post-emergence, 125 g ai/ha, postemergence, read-out: Plant response rating (0 to 100), Wheat): 5%
- plant injury at 250 g/ha (wheat, winter; Triticum aestivum, post-emergence, 250 g ai/ha, postemergence, read-out: Plant response rating (0 to 100), Wheat): 35%
- plant injury at 31 g/ha (wheat, winter; Triticum aestivum, post-emergence, Postemergence, 31 g ai/ha, scale 0 to 100 (0 no effect, 100 complete control), 13 to 15 days, read-out: Plant response rating, Wheat): 0%
- plant injury at 62 g/ha (wheat, winter; Triticum aestivum, post-emergence, Postemergence, 62 g ai/ha, scale 0 to 100 (0 no effect, 100 complete control), read-out: Plant response rating, Wheat): 5%
- Plant response rating, Morningglory (morningglory; 125 g ai/ha, 0 to 100 scale where 0 is no effect and 100 is complete control): 100
- pest or weed control at 500 g/ha (morningglory; Ipomoea, pre-emergence, 240 h, 500 g ai/ha, 0 to 100 scale, 0 no effect, 100 complete control, approx. 10 days, read-out: Morningglory plant response rating): 100%

Reference: US9695155B2, “Herbicidal substituted pyrimidinyloxy benzene compounds” (E. I. DU PONT DE NEMOURS AND COMPANY, priority 2013, dated 2017)
